Assay results taken from the supplement of paper PMC10307832.

How the values were obtained:
Experiment in all cases: relative viability (nuclei count vs DMSO), 5 days (fraction); higher = more cells survive
Bexarotene + Bortezomib = compound: C=C(c1ccc(C(=O)O)cc1)c1cc2c(cc1C)C(C)(C)CCC2(C)C [Bexarotene] + CC(C)C[C@H](NC(=O)[C@H](Cc1ccccc1)NC(=O)c1cnccn1)B(O)O [Bortezomib] (partner 0.002 µM)
In short: (§1)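 Nuclei were stained with Hoechst during a one-step fixation (final 0.05% Triton X-100, 1% formaldehyde, 1 ug/ml Hoechst) carried out 5 days after dosing, then counted on 4× images. The cells, lung cancer lines in 1536-well plates, had been dosed by pin tool the day after seeding with one drug alone or a fixed anchor-drug dose plus five library-drug doses (not always all listed) in √10 steps. Relative viability is the nuclei count in treated wells divided by that in vehicle wells, and each value is the median of duplicate plates.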

Bexarotene + Navitoclax = compound: C=C(c1ccc(C(=O)O)cc1)c1cc2c(cc1C)C(C)(C)CCC2(C)C [Bexarotene] + CC1(C)CCC(c2ccc(Cl)cc2)=C(CN2CCN(c3ccc(C(=O)NS(=O)(=O)c4ccc(N[C@H](CCN5CCOCC5)CSc5ccccc5)c(S(=O)(=O)C(F)(F)F)c4)cc3)CC2)C1 [Navitoclax] (partner 0.5 µM)
In short: as §1

Bexarotene + Dasatinib = compound: C=C(c1ccc(C(=O)O)cc1)c1cc2c(cc1C)C(C)(C)CCC2(C)C [Bexarotene] + Cc1nc(Nc2ncc(C(=O)Nc3c(C)cccc3Cl)s2)cc(N2CCN(CCO)CC2)n1 [Dasatinib] (partner 0.075 µM)
In short: as §1

Bexarotene + Luminespib = compound: C=C(c1ccc(C(=O)O)cc1)c1cc2c(cc1C)C(C)(C)CCC2(C)C [Bexarotene] + CCNC(=O)c1noc(-c2cc(C(C)C)c(O)cc2O)c1-c1ccc(CN2CCOCC2)cc1 [Luminespib] (partner 0.01 µM)
In short: as §1

Cell Line	relative viability (Bexarotene + Bortezomib; first compound 0.08 µM)	relative viability (Bexarotene + Bortezomib; first compound 0.253 µM)	relative viability (Bexarotene + Bortezomib; first compound 0.8 µM)	relative viability (Bexarotene + Bortezomib; first compound 2.53 µM)	relative viability (Bexarotene + Bortezomib; first compound 8 µM)	relative viability (Bexarotene + Navitoclax; first compound 0.08 µM)	relative viability (Bexarotene + Navitoclax; first compound 0.253 µM)	relative viability (Bexarotene + Navitoclax; first compound 0.8 µM)	relative viability (Bexarotene + Navitoclax; first compound 2.53 µM)	relative viability (Bexarotene + Navitoclax; first compound 8 µM)	relative viability (Bexarotene + Dasatinib; first compound 0.08 µM)	relative viability (Bexarotene + Dasatinib; first compound 0.253 µM)	relative viability (Bexarotene + Dasatinib; first compound 0.8 µM)	relative viability (Bexarotene + Dasatinib; first compound 2.53 µM)	relative viability (Bexarotene + Dasatinib; first compound 8 µM)	relative viability (Bexarotene + Luminespib; first compound 0.08 µM)	relative viability (Bexarotene + Luminespib; first compound 0.253 µM)	relative viability (Bexarotene + Luminespib; first compound 0.8 µM)	relative viability (Bexarotene + Luminespib; first compound 2.53 µM)	relative viability (Bexarotene + Luminespib; first compound 8 µM)
LU99A	1.36	1.26	1.12	1.23	1.21	0.931	0.828	0.826	0.895	0.89	0.748	0.703	0.711	0.613	0.699	0.268	0.251	0.238	0.291	0.244
LXF-289	1.15	1.08	1.14	1.09	1.16	1.11	1.09	1.08	1.1	0.974	0.213	0.195	0.179	0.127	0.155	0.8	0.824	0.798	0.874	0.8
NCI-H23	1.1	1.03	1.02	0.9	0.962	1.01	0.96	0.853	0.923	0.729	0.944	0.594	0.635	0.884	0.691	0.229	0.201	0.238	0.234	0.204
NCI-H322M	1.3	1.4	1.26	1.17	1.32	1.19	1.33	1.17	1.19	1.26	0.282	0.266	0.264	0.261	0.3	1.05	0.902	0.862	0.982	0.812
NCI-H441	0.472	0.633	0.592		0.619	0.845	0.747	1.02		0.541	0.857	0.701	1	0.717	0.579	0.373	0.384	0.314	0.295	0.377
NCI-H460	1.16	1.09	0.961	1.14	1.04	1.31	1.18	1.05	0.993	0.918	0.615	0.531	0.565	0.512	0.505	0.0252	0.0297	0.0376	0.0318	0.0222
NCI-H520	0.805	0.588	0.518	0.385	0.534	1.14	1.11	1.03	1.14	0.993	0.223	0.211	0.204	0.215	0.187	0.236	0.22	0.229	0.22	0.226
NCI-H596	1.01	0.986	0.836	0.795	0.85	1.02	0.85	0.707	0.973	0.829	0.671	0.654	0.773	0.907	0.704	1.08	1.18	1.01	0.983	0.963
NCI-H647	0.943	1.05	0.89	1.1	1.02	1.32	1.35	1.2	1.15	1.1	0.173	0.153	0.123	0.0933	0.114	0.148	0.176	0.211	0.134	0.11
NCI-H727	1.21	0.735	0.899	0.822	0.955	0.467	0.38	0.452	0.354	0.405	0.405	0.311	0.388	0.316	0.37	0.392	0.685	0.325	0.322	0.372
NCI-H838	0.995	1.16	0.803	0.777	0.949	1.13	1.33	1.23	1.32	1.22	0.299	0.301	0.339	0.346	0.381	0.368	0.377	0.269	0.329	0.321
NCI-H1355	1.17	1.35	1.21	1.32	1.14	1.03	0.998	0.928	1.17	0.84	0.744	0.814	0.55	0.627	0.707	0.831	0.714	0.668	0.631	0.716
NCI-H1437	0.528	0.621	0.611	0.546	0.49	1.08	1.15	1.06	1.07	0.953	0.445	0.6	0.567	0.411	0.434	1.05	1.07	1.15	1.07	1.1
NCI-H1650	0.218	0.21	0.178	0.204	0.227	1.37	1.4	1.34	1.21	1.3	0.383	0.38	0.408	0.333	0.296	0.195	0.183	0.219	0.225	0.231
NCI-H1651	1.14	0.843	0.965	0.944	1.04	1.1	1.09	1.11	1.22	0.925	0.518	0.551	0.363	0.458	0.374	1.06	0.881	0.938	0.845	0.911
NCI-H1666	0.742	0.701	0.727	0.719	0.75	0.98	0.922	0.864	0.897	0.723	0.793	0.826	0.783	0.788	0.77	0.922	0.978	0.916	0.907	0.816
